# Assay results from PubChem BioAssay (NCI).
#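 Exposure lasted 48 hours, with cells grown in 96-well plates and compounds tested at five concentrations. The concentration for 50% growth inhibition is given as GI50. TGI marks complete inhibition of growth.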
# How the values were obtained:
# Experiment in all cases: DTP human tumour cell line panel, 48 h
# [1] = system: NCI-H226 lung
# [2] = system: IGROV1 ovarian
# [3] = system: DU-145 prostate
# [4] = system: UACC-257 melanoma
# [5] = system: A549 NSCLC
# [6] = system: SNB-19 CNS
# [7] = system: SF-268 CNS
# [8] = system: MCF7 breast
# [9] = system: NCI-H23 lung
# [10] = system: HCT-116 colon
# [11] = system: BT-549 breast
# [12] = system: NCI/ADR-RES ovarian
# [13] = system: SR leukemia
# [14] = system: TK-10 renal
# [15] = system: SK-MEL-5 melanoma
# [16] = system: HL-60(TB) leukemia
# [17] = system: KM12 colon
# [18] = system: NCI-H522 lung
# [19] = system: M14 melanoma
# [20] = system: OVCAR-8 ovarian
# [21] = system: UACC-62 melanoma
# [22] = system: COLO 205 colon
# [23] = system: OVCAR-4 ovarian
# [24] = system: SW-620 colon
# [25] = system: NCI-H460 lung
# [26] = system: UO-31 renal
# [27] = system: OVCAR-3 ovarian
# [28] = system: SN12C renal
# [29] = system: MOLT-4 leukemia
# [30] = system: HCT-15 colon
# [31] = system: SK-MEL-28 melanoma
# [32] = system: LOX IMVI melanoma
# [33] = system: CCRF-CEM leukemia
# [34] = system: EKVX NSCLC
# [35] = system: RPMI-8226 leukemia
# [36] = system: HS 578T breast
# [37] = system: RXF 393 renal
# [38] = system: CAKI-1 renal
# [39] = system: SNB-75 CNS
# [40] = system: U251 CNS
# [41] = system: A498 renal
# [42] = system: K-562 leukemia
# [43] = system: MDA-MB-435
# [44] = system: SK-MEL-2 melanoma
# [45] = system: OVCAR-5 ovarian
# [46] = system: SK-OV-3 ovarian
# [47] = system: ACHN renal
# [48] = system: PC-3 prostate
# [49] = system: HOP-62 NSCLC
# [50] = system: SF-295 CNS
# [51] = system: HOP-92 NSCLC
# [52] = system: 786-0 renal
# [53] = system: T-47D breast
# [54] = system: MDA-MB-231 breast
# [55] = system: HT29 colon
# [56] = system: HCC-2998 colon
# [57] = system: MALME-3M melanoma
# [58] = system: SF-539 CNS
smiles,measurement,setting,value
COc1cc2c(cc1Nc1nc(Nc3ccsc3C(N)=O)c3cc[nH]c3n1)N(C(=O)CN(C)C)CCC2,GI50,[1],1120 nM
same,TGI,[1],7180 nM
same,GI50,[2],1790 nM
same,TGI,[2],8360 nM
same,GI50,[3],481 nM
same,TGI,[3],1640 nM
same,GI50,[4],55.8 nM
same,TGI,[4],3670 nM
same,GI50,[5],636 nM
same,TGI,[5],3920 nM
same,GI50,[6],2580 nM
same,TGI,[6],> 25000 nM
same,GI50,[7],1150 nM
same,TGI,[7],10600 nM
same,GI50,[8],3.43 nM
same,TGI,[8],> 25000 nM
same,GI50,[9],343 nM
same,TGI,[9],8550 nM
same,GI50,[10],458 nM
same,TGI,[10],3790 nM
same,GI50,[11],2380 nM
same,TGI,[11],6430 nM
same,GI50,[12],4750 nM
same,TGI,[12],> 25000 nM
same,GI50,[13],12.3 nM
same,TGI,[13],3440 nM
same,GI50,[14],1460 nM
same,TGI,[14],6270 nM
same,GI50,[15],383 nM
same,TGI,[15],3200 nM
same,GI50,[16],5.52 nM
same,TGI,[16],1090 nM
same,GI50,[17],529 nM
same,TGI,[17],2660 nM
same,GI50,[18],507 nM
same,TGI,[18],2190 nM
same,GI50,[19],592 nM
same,TGI,[19],3280 nM
same,GI50,[20],842 nM
same,TGI,[20],> 11200 nM
same,GI50,[21],889 nM
same,TGI,[21],4200 nM
same,GI50,[22],< 2.5 nM
same,TGI,[22],394 nM
same,GI50,[23],2980 nM
same,TGI,[23],9030 nM
same,GI50,[24],72.6 nM
same,TGI,[24],> 25000 nM
same,GI50,[25],498 nM
same,TGI,[25],3210 nM
same,GI50,[26],3350 nM
same,TGI,[26],7390 nM
same,GI50,[27],618 nM
same,TGI,[27],2130 nM
same,GI50,[28],3670 nM
same,TGI,[28],11800 nM
same,GI50,[29],1230 nM
same,TGI,[29],9600 nM
same,GI50,[30],1870 nM
same,TGI,[30],> 25000 nM
same,GI50,[31],1800 nM
same,TGI,[31],5690 nM
same,GI50,[32],580 nM
same,TGI,[32],3660 nM
same,GI50,[33],162 nM
same,TGI,[33],9660 nM
same,GI50,[34],551 nM
same,TGI,[34],6350 nM
same,GI50,[35],1240 nM
same,TGI,[35],6560 nM
same,GI50,[36],1140 nM
same,TGI,[36],5420 nM
same,GI50,[37],612 nM
same,TGI,[37],3340 nM
same,GI50,[38],3640 nM
same,TGI,[38],10200 nM
same,GI50,[39],1490 nM
same,TGI,[39],3920 nM
same,GI50,[40],1140 nM
same,TGI,[40],12800 nM
same,GI50,[41],500 nM
same,TGI,[41],4130 nM
same,GI50,[42],875 nM
same,TGI,[42],13700 nM
same,GI50,[43],49.9 nM
same,TGI,[43],489 nM
same,GI50,[44],726 nM
same,TGI,[44],4580 nM
same,GI50,[45],109 nM
same,TGI,[45],3660 nM
same,GI50,[46],1180 nM
same,TGI,[46],4890 nM
same,GI50,[47],2670 nM
same,TGI,[47],6060 nM
same,GI50,[48],1170 nM
same,TGI,[48],> 23600 nM
same,GI50,[49],917 nM
same,TGI,[49],6840 nM
same,GI50,[50],974 nM
same,TGI,[50],4800 nM
same,GI50,[51],< 2.5 nM
same,TGI,[51],1190 nM
same,GI50,[52],3130 nM
same,TGI,[52],6950 nM
same,GI50,[53],3870 nM
same,TGI,[53],9650 nM
same,GI50,[54],1010 nM
same,TGI,[54],4630 nM
same,GI50,[55],< 2.5 nM
same,TGI,[55],681 nM
same,GI50,[56],200 nM
same,TGI,[56],2270 nM
same,GI50,[57],2580 nM
same,TGI,[57],6240 nM
same,GI50,[58],983 nM
same,TGI,[58],4160 nM
CN1CCN(Cc2ccc(NC(=O)c3cncc(C#Cc4c(N)ncc5ccc(F)cc45)c3)cc2C(F)(F)F)CC1,GI50,[1],400 nM
same,TGI,[1],1750 nM
same,GI50,[2],369 nM
same,TGI,[2],6430 nM
same,GI50,[3],1450 nM
same,TGI,[3],7020 nM
same,GI50,[4],694 nM
same,TGI,[4],1690 nM
same,GI50,[5],960 nM
same,TGI,[5],6210 nM
same,GI50,[6],3470 nM
same,TGI,[6],12000 nM
same,GI50,[7],783 nM
same,TGI,[7],2430 nM
same,GI50,[8],297 nM
same,TGI,[8],1530 nM
same,GI50,[9],574 nM
same,TGI,[9],4580 nM
same,GI50,[10],211 nM
same,TGI,[10],1370 nM
same,GI50,[11],2140 nM
same,TGI,[11],8660 nM
same,GI50,[12],1890 nM
same,TGI,[12],5830 nM
same,GI50,[13],809 nM
same,TGI,[13],11300 nM
same,GI50,[14],960 nM
same,TGI,[14],2290 nM
same,GI50,[15],690 nM
same,TGI,[15],1360 nM
same,GI50,[16],75.8 nM
same,TGI,[16],1980 nM
same,GI50,[17],5 nM
same,TGI,[17],939 nM
same,GI50,[18],1750 nM
same,TGI,[18],11500 nM
same,GI50,[19],194 nM
same,TGI,[19],857 nM
same,GI50,[20],1760 nM
same,TGI,[20],8030 nM
same,GI50,[21],640 nM
same,TGI,[21],1810 nM
same,GI50,[22],206 nM
same,TGI,[22],3320 nM
same,GI50,[23],825 nM
same,TGI,[23],3870 nM
same,GI50,[24],206 nM
same,TGI,[24],1130 nM
same,GI50,[25],647 nM
same,TGI,[25],3330 nM
same,GI50,[26],688 nM
same,TGI,[26],1500 nM
same,GI50,[27],4070 nM
same,TGI,[27],16500 nM
same,GI50,[28],937 nM
same,TGI,[28],5300 nM
same,GI50,[29],234 nM
same,TGI,[29],3030 nM
same,GI50,[30],487 nM
same,TGI,[30],6850 nM
same,GI50,[31],621 nM
same,TGI,[31],1370 nM
same,GI50,[32],303 nM
same,TGI,[32],1050 nM
same,GI50,[33],553 nM
same,TGI,[33],3730 nM
same,GI50,[34],2830 nM
same,TGI,[34],10600 nM
same,GI50,[35],757 nM
same,TGI,[35],3870 nM
same,GI50,[36],512 nM
same,TGI,[36],1930 nM
same,GI50,[37],642 nM
same,TGI,[37],1390 nM
same,GI50,[38],1060 nM
same,TGI,[38],5680 nM
same,GI50,[39],721 nM
same,TGI,[39],2660 nM
same,GI50,[40],1050 nM
same,TGI,[40],4000 nM
same,GI50,[41],299 nM
same,TGI,[41],1260 nM
same,GI50,[42],5 nM
same,TGI,[42],1070 nM
same,GI50,[43],180 nM
same,TGI,[43],876 nM
same,GI50,[44],479 nM
same,TGI,[44],2550 nM
same,GI50,[45],524 nM
same,TGI,[45],1270 nM
same,GI50,[46],5960 nM
same,TGI,[46],13600 nM
same,GI50,[47],562 nM
same,TGI,[47],1270 nM
same,GI50,[48],1230 nM
same,TGI,[48],3780 nM
same,GI50,[49],1170 nM
same,TGI,[49],4670 nM
same,GI50,[50],4370 nM
same,TGI,[50],13000 nM
same,GI50,[51],28.5 nM
same,TGI,[51],322 nM
same,GI50,[52],911 nM
same,TGI,[52],1810 nM
same,GI50,[53],23800 nM
same,TGI,[53],50000 nM
same,GI50,[54],240 nM
same,TGI,[54],1150 nM
same,GI50,[55],126 nM
same,TGI,[55],789 nM
same,GI50,[56],653 nM
same,TGI,[56],9660 nM
same,GI50,[57],166 nM
same,TGI,[57],743 nM
same,GI50,[58],628 nM
same,TGI,[58],2650 nM
